Measured values as given in the supplement of paper PMC11003180.

Key:
Test in all cases: drug sensitivity score (DSS) from 5-dose viability curve (DSS (area-based score, 0 = no response)); higher = more sensitive (stronger viability inhibition); extreme values may be limits of the assay
[1] = tested on: MDCK p60AmotL2-inducible + doxycycline (p60AmotL2 expressing); settings: doxycycline: 10 ng/mL; 72 h
How it was run: (§1)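 Two MDCK lines, parental and doxycycline-inducible, received doxycycline at 10 ng/mL in the medium before being plated at 2000 cells/well onto a pre-spotted 384-well oncology library of 528 drugs at five doses (1-10,000 nM). Incubation lasted 72 h at 37 °C. Viability was read by CellTiter-Glo luminescence, scaled per plate between vehicle and positive controls, and converted to drug sensitivity scores through Breeze curve fitting.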

[2] = tested on: MDCK wild-type + doxycycline; settings: doxycycline: 10 ng/mL; 72 h
How it was run: as §1

[3] = tested on: MDCK wild-type - doxycycline; settings: doxycycline: none; 72 h
How it was run: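 Parental MDCK cells, grown without doxycycline, were seeded at 2000 cells/well into 384-well plates pre-spotted with an oncology library of 528 drugs at five doses (1-10,000 nM). After 72 h at 37 °C, CellTiter-Glo luminescence was read. Viability was scaled per plate between vehicle and positive controls, and drug sensitivity scores were derived from dose-response curve fits in the Breeze pipeline.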

Compound	drug sensitivity score [1]	drug sensitivity score [2]	drug sensitivity score [3]
CCNC(=O)c1noc(-c2cc(C(C)C)c(O)cc2O)c1-c1ccc(CN2CCOCC2)cc1 [Luminespib]	20.7	18.4	15.8
O=C(O)CC[C@H]1CC[C@@](c2cc(F)ccc2F)(S(=O)(=O)c2ccc(Cl)cc2)CC1 [MK-0752]	0	0	0
NC1(c2ccc(-c3nc4ccn5c(=O)[nH]nc5c4cc3-c3ccccc3)cc2)CCC1 [MK-2206]	0	0	0
O=C(c1cccc(Cl)c1F)N1CCN(Cc2cccc(Nc3nccs3)n2)CC1 [MK-8745]	12.4	9.5	6.6
Cn1cc(-c2cnn3c(N)c(Br)c([C@@H]4CCCNC4)nc23)cn1 [MK-8776]	0	0	0
Cc1cnc(-c2ccccc2C(C)C)nc1NCc1ccc(-n2ccnn2)cc1 [ML323]	1.4	0	0
O=C(CCNC(=O)c1ccc(OC(F)(F)F)cc1)N[C@@H]1CCCc2ccccc21 [ML390]	18.3	14.5	13.8
O=C(Nc1cccc(NC(=O)c2cccc(O)c2O)c1)c1cccc(O)c1O [MST-312]	9.1	5.9	7.2
CNC(=O)[C@@H](NC(=O)[C@H](CC(C)C)[C@H](O)C(=O)NO)C(C)(C)C [Marimastat]	3.5	0.1	0
Cc1ccc(NC(=O)c2ccc(CN3CCN(C)CC3)cc2)cc1Nc1nc(-c2cccnc2)cs1 [Masitinib]	5.3	8.2	5.7
CC(=O)O[C@]1(C(C)=O)CC[C@H]2[C@@H]3C=C(C)C4=CC(=O)CC[C@]4(C)[C@H]3CC[C@@]21C [Megestrol acetate]	0	0	0
CCN(CC)CCCC(C)Nc1c2ccc(Cl)cc2nc2ccc(OC)cc12 (stereo not drawn) [Mepacrine]	15.2	16.2	10.5
S=c1[nH]cnc2nc[nH]c12 [Mercaptopurine]	1.6	1.8	2.1
Cc1ccc(C(=O)Nc2ccc(Oc3cc4cnn(C)c4cc3-c3cn[nH]c3)c(F)c2)c(=O)n1-c1ccc(F)cc1 [Merestinib]	0	0	0.9
CN(C)C(=N)NC(=N)N [Metformin]	0	0	0
CN(Cc1cnc2nc(N)nc(N)c2n1)c1ccc(C(=O)N[C@@H](CCC(=O)O)C(=O)O)cc1 [Methotrexate]	22.5	25.8	27
C[C@H]1C[C@@H]2[C@H]([C@@H](O)C[C@@]3(C)[C@H]2CC[C@]3(O)C(=O)CO)[C@@]2(C)C=CC(=O)C=C12 [Methylprednisolone]	0	0	0
CO[C@@H]1[C@H](N(C)C(=O)c2ccccc2)C[C@H]2O[C@]1(C)n1c3ccccc3c3c4c(c5c6ccccc6n2c5c31)C(=O)NC4 [Midostaurin]	13.9	11.5	13.2
CNC(=O)c1nn(C)c2c1C(C)(C)Cc1cnc(Nc3ccc(N4CCN(C)CC4)cc3)nc1-2 [Milciclib]	13.2	14.5	12.4
CCCCCCCCCCCCCCCCOP(=O)([O-])OCC[N+](C)(C)C [Miltefosine]	5.3	5.2	4.9
CO[C@@]12[C@H](COC(N)=O)C3=C(C(=O)C(C)=C(N)C3=O)N1C[C@@H]1N[C@@H]12 [Mitomycin C]	0	0	1.2
Clc1ccc(C(c2ccccc2Cl)C(Cl)Cl)cc1 (stereo not drawn) [Mitotane]	0	0	0
O=C1c2c(O)ccc(O)c2C(=O)c2c(NCCNCCO)ccc(NCCNCCO)c21 [Mitoxantrone]	15.5	8.9	7.1

Compound	drug sensitivity score [1]	drug sensitivity score [2]	drug sensitivity score [3]
CCS(=O)(=O)Nc1ccc(Oc2ccc(F)cc2F)c(-c2cn(C)c(=O)c3[nH]ccc23)c1 [Mivebresib]	29.9	23.8	18.7
Nc1ccccc1NC(=O)c1ccc(CNc2nccc(-c3cccnc3)n2)cc1 [Mocetinostat]	6.2	8.4	8.1
CCNC(=O)C[C@@H]1N=C(c2ccc(Cl)cc2)c2cc(OC)ccc2-n2c(C)nnc21 [Molibresib]	9.5	2.9	0.9
N#CCNC(=O)c1ccc(-c2ccnc(Nc3ccc(N4CCOCC4)cc3)n2)cc1 [Momelotinib]	3.3	2.7	3.7
CC1(C)CNc2cc(NC(=O)c3cccnc3NCc3ccncc3)ccc21 [Motesanib]	0	0	0
CCCN(CCC)C(=O)C1=Cc2ccc(-c3ccc(C(=O)N4CCCC4)cc3)cc2N=C(N)C1 [Motolimod]	2.5	0.8	0
FC(F)(F)c1ccc(/C=C/c2nc(COc3ccc(CCCCn4ccnn4)cc3)co2)cc1 [Mubritinib]	0	0	0
Cc1cc(OCc2nnc(SC3CCCC3)n2-c2cccnc2)ccc1-c1ccc(S(C)(=O)=O)cc1 [NMS-873]	14.7	13.5	12.8
COc1ccc(-c2ccc3ncc4c(c3c2)n(-c2ccc(N3CCNCC3)c(C(F)(F)F)c2)c(=O)n4C)cn1 [NVP-BGT226]	18.9	13.5	11.8
Cc1ccc(C(=O)Nc2cccc(C(F)(F)F)c2)cc1Nc1nc(-c2cccnc2)nc2c1cnn2C [NVP-BHG712]	0	0	4.8
COc1cc2c(cc1OC(C)C)[C@H](c1ccc(Cl)cc1)N(c1ccc(N(C)C[C@H]3CC[C@H](N4CCN(C)C(=O)C4)CC3)cc1)C(=O)C2 [NVP-CGM097]	7.6	5.3	5.4
CN[C@@H](C)C(=O)N[C@H](C(=O)N1CCC[C@H]1c1nc(C(=O)c2ccc(F)cc2)cs1)C1CCCCC1 [NVP-LCL161]	0.5	3.1	0
Cn1c(Nc2ccc(C(F)(F)F)cc2)nc2cc(Oc3ccnc(-c4ncc(C(F)(F)F)[nH]4)c3)ccc21 [NVP-RAF265]	0	0	0
CC(=O)c1cc2c(o1)C(=O)c1ccccc1C2=O [Napabucasin]	18.1	18.5	18.3
CC1(C)CCC(c2ccc(Cl)cc2)=C(CN2CCN(c3ccc(C(=O)NS(=O)(=O)c4ccc(N[C@H](CCN5CCOCC5)CSc5ccccc5)c(S(=O)(=O)C(F)(F)F)c4)cc3)CC2)C1 [Navitoclax]	0	0.9	0.8
CN1C(=O)N[C@H](Cc2c[nH]c3c(Cl)cccc23)C1=O [Necrostatin 2]	0	0	0
O=c1ncn2nc(Sc3ccc(F)cc3F)ccc2c1-c1c(Cl)cccc1Cl [Neflamapimod]	0	0	0
COc1nc(N)nc2c1ncn2[C@@H]1O[C@H](CO)[C@@H](O)[C@@H]1O [Nelarabine]	0	0	0
CCOc1cc2ncc(C#N)c(Nc3ccc(OCc4ccccn4)c(Cl)c3)c2cc1NC(=O)/C=C/CN(C)C [Neratinib]	16.8	7.5	5.1
Cc1cn(-c2cc(NC(=O)c3ccc(C)c(Nc4nccc(-c5cccnc5)n4)c3)cc(C(F)(F)F)c2)cn1 [Nilotinib]	0	0	0
CC1(C)NC(=O)N(c2ccc([N+](=O)[O-])c(C(F)(F)F)c2)C1=O [Nilutamide]	0	0	0
COC(=O)c1ccc2c(c1)NC(=O)/C2=C(\Nc1ccc(N(C)C(=O)CN2CCN(C)CC2)cc1)c1ccccc1 [Nintedanib]	8.3	1.3	0.3
NC(=O)c1cccc2cn(-c3ccc([C@@H]4CCCNC4)cc3)nc12 [Niraparib]	2.1	2.3	0.7
